Experiments:
EGFR (Hamster) = EGFR (Hamster) (UniProt P00533); conditions: for IC50: er22; for inhibition: er22, dose or concentration not given here
EGFR = EGFR (UniProt P00533); conditions: for inhibition: concentration not given here
Sequence of EGFR (P00533 whole entry, looked up): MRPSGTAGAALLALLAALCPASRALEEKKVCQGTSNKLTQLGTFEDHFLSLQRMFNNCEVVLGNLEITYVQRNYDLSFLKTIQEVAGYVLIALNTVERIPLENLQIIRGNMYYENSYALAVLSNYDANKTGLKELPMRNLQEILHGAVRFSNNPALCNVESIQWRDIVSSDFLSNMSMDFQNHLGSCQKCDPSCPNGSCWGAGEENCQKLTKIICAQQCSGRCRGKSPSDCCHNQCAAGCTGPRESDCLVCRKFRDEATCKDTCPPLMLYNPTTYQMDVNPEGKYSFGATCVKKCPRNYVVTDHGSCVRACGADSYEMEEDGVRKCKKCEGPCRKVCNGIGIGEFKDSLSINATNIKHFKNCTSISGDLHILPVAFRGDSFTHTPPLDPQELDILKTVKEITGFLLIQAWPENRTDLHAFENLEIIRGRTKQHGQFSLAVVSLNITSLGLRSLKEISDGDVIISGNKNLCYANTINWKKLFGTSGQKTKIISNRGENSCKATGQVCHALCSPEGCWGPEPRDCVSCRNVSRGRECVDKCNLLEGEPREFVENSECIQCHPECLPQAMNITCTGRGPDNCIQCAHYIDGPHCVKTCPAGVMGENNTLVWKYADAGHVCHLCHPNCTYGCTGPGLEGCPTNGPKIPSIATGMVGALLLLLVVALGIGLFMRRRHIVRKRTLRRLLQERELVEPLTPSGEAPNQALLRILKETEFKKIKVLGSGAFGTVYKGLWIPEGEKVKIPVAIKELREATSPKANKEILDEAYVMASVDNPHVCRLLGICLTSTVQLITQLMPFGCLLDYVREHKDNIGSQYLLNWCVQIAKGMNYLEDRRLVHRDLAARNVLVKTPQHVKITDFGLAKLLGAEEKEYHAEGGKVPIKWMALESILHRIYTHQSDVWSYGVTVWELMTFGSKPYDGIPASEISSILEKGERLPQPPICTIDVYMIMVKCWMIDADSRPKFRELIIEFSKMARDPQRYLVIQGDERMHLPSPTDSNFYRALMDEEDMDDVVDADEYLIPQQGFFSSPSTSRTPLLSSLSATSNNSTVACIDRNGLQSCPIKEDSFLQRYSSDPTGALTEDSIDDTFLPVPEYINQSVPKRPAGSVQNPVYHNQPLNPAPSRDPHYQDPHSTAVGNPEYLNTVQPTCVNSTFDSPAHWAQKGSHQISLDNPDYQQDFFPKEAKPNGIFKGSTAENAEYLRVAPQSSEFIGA

Sequence of EGFR (Hamster) (P00533 whole entry, looked up): as above

Work on `O=C(Oc1cccc(O)c1)c1cc(NCc2cc(O)ccc2O)ccc1O` yielded an IC50 (EGFR (Hamster)) greater than 5 µM and an inhibition (EGFR (Hamster)) of 0%.
Work on `CC(C)(C)ONC(=O)c1cc(N=Cc2cc(O)ccc2O)ccc1O` yielded an IC50 (EGFR (Hamster)) greater than 20 µM and an inhibition (EGFR (Hamster)) of 0%.
`CC(C)(C)CCOC(=O)c1cc(N=Cc2cc(O)ccc2O)ccc1O` showed an IC50 (EGFR (Hamster)) greater than 2 µM and an inhibition (EGFR (Hamster)) of 0%.
`CCCCCCCCCCCCCCCCOC(=O)c1cc(NCc2cc(O)ccc2O)ccc1O` was tested, and the inhibition (EGFR (Hamster)) was 0% and the inhibition (EGFR) was 0%.
`CONC(=O)c1cc(N=Cc2cc(O)ccc2O)ccc1O` showed an IC50 (EGFR (Hamster)) greater than 100 µM.
For `O=C(OCCC1[C@H]2C[C@@H]3C[C@@H](C[C@H]1C3)C2)c1cc(NCc2cc(O)ccc2O)ccc1O` (some centres not stated), the IC50 (EGFR (Hamster)) was 1.25 µM, the IC50 (EGFR) was greater than 5 µM and the inhibition (EGFR) was 0%.
`O=C(Oc1ccc2ccccc2c1)c1cc(NCc2cc(O)ccc2O)ccc1O` gave an IC100 (EGFR) of 0.09 µM.
`CC(CCOC(=O)c1cc(NCc2cc(O)ccc2O)ccc1O)CC(C)(C)C` (configuration not stated) gave an inhibition (EGFR) of 0%.
`CC(COC(=O)c1cc(N=Cc2cc(O)ccc2O)ccc1O)CC(C)(C)C` (configuration not stated) showed an inhibition (EGFR) of 0%.
With `O=C(Cc1cc(N=Cc2cc(O)ccc2O)ccc1O)NOCc1ccccc1` the inhibition (EGFR (Hamster)) was 61%.
With `CC(C)(C)OC(=O)c1cc(N=Cc2cc(O)ccc2O)ccc1O` the IC50 (EGFR (Hamster)) was greater than 10 µM.

Source: the Kinase Knowledgebase extract (Sharma et al. 2016)
